Measurements reported in ChEMBL document CHEMBL1134347, “Structure-activity studies of substituted quinoxalinones as multiple-drug-resistance antagonists” (J Med Chem, 2001).

Experiments:
MCF7 [1] = test: Cytotoxicity against MCF-7 breast carcinoma cells at 10 ug/mL; assay type: functional, cell-based; details: Homo sapiens
[2] = target: Multidrug resistance-associated protein 1 (Homo sapiens, UniProt P33527); test: The MRP1 antagonism score is the percentage of MCF-7/VP cells surviving in the absence of vincristine to that of in the presence of vincristine.; assay type: functional
Chain of Multidrug resistance-associated protein 1 (P33527 whole entry): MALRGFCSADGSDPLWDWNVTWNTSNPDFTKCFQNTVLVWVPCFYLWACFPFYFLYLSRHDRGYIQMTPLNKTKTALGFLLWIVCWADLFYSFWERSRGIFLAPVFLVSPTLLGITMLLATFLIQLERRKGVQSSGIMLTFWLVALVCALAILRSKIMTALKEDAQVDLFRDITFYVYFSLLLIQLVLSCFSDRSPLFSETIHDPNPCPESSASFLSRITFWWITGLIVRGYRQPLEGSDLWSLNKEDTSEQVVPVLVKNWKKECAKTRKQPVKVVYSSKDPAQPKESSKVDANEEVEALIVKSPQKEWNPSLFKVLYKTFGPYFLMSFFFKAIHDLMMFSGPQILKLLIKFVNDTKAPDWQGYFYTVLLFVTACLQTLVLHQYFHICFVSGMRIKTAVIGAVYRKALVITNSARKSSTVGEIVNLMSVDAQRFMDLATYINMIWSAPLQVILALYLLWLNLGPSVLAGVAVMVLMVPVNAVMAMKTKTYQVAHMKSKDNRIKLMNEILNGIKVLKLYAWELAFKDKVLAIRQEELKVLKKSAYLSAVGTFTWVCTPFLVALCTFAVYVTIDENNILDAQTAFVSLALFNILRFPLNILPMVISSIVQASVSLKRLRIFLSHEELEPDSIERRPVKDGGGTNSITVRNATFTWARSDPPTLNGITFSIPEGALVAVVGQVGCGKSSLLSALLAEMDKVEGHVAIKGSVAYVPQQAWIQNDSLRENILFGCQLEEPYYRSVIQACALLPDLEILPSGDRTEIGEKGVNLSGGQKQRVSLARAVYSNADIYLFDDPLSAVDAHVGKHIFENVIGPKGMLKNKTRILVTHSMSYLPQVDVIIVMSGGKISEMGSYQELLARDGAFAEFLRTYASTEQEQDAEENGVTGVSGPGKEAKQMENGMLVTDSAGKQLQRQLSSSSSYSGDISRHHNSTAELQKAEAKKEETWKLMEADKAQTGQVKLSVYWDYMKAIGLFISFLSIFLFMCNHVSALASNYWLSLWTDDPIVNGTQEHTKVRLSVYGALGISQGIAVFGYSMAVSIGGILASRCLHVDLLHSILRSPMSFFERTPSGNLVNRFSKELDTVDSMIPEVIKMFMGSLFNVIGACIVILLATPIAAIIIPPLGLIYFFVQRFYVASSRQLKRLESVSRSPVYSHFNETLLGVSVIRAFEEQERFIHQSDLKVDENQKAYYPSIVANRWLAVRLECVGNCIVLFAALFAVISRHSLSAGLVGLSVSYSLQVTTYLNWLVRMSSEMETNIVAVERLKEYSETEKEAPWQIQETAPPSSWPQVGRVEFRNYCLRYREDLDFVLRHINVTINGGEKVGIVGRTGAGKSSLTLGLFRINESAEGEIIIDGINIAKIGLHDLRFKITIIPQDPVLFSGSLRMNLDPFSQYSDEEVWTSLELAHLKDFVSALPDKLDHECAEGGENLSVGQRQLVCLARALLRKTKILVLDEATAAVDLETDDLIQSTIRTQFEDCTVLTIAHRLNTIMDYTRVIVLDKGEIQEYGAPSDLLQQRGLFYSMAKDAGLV

MCF7 [3] = assay type: functional, Homo sapiens

| SMILES | IC50 (MCF7 [1]) [µM] | Ratio [2] | Toxicity (MCF7 [3]) [%] |
| --- | --- | --- | --- |
| CCOC(=O)c1ccc(OCc2nc3ccccc3n(C)c2=O)cc1 | > 74 | 0.9 | – |
| Nc1ccc(Br)cc1-c1nc2cc3ccccc3cc2nc1O | – | 1.3 | 49 |
| Cn1c(=O)c(COc2ccccc2)nc2ccccc21 | > 94 | 1 | – |
| Cn1c(=O)c(COc2cccnc2)nc2ccccc21 | > 56 | 1.1 | – |
| Cn1c(=O)c(COc2c(F)c(F)c(F)c(F)c2F)nc2ccccc21 | > 70 | 0.8 | – |
| Nc1ccccc1-c1nc2ccccc2nc1O | – | 1.1 | 22 |
| Cn1c(=O)c(COc2cccc3ccccc23)nc2ccccc21 | 20 | 0.9 | – |
| Cn1c(=O)c(COc2ccc(C(=O)c3ccccc3)cc2)nc2ccccc21 | > 67 | 0.9 | – |
| CN(C)c1cccc(OCc2nc3ccccc3n(C)c2=O)c1 | 57 | 0.9 | – |
| Cc1nc2ccccc2nc1O | > 156 | 1.1 | – |
| Nc1ccccc1-c1nc2cc3ccccc3cc2nc1O | – | 1.3 | 37 |
| Cn1c(=O)c(COc2ccccc2C(=O)Nc2ccccc2)nc2ccccc21 | > 32 | 1 | – |
| Cn1c(=O)c(Cc2ccccc2)nc2ccccc21 | > 100 | 1.1 | – |
| CNc1ccc(OC)cc1-c1nc2cc3ccccc3cc2nc1O | – | 1 | 25 |
| Cn1c(=O)c(COc2ccccc2Cc2ccccc2)nc2ccccc21 | 8.1 | 1.1 | – |
| CNc1ccc(OC)cc1-c1nc2cc3ccccc3cc2n(C)c1=O | – | 2.1 | 3 |
| COC(=O)c1ccc(OCc2nc3ccccc3n(C)c2=O)c(OC)c1 | 71 | 1.1 | – |
| Cn1c(=O)c(COc2ccc(F)cc2)nc2ccccc21 | 26 | 0.8 | – |
| Oc1nc2ccccc2nc1Cc1ccccc1 | > 106 | 1 | – |
| CNc1ccc(OC)cc1-c1nc2ccccc2n(C)c1=O | – | 3.5 | 7 |
| Cn1c(=O)c(COc2ccc(C#N)cc2)nc2ccccc21 | > 43 | 0.8 | – |
| Cc1cc(OCc2nc3ccccc3n(C)c2=O)ccc1[N+](=O)[O-] | > 77 | 1.1 | – |
| CNc1ccccc1-c1nc2cc([N+](=O)[O-])ccc2n(C)c1=O | – | 1.1 | 7 |
| Cc1nc2ccccc2n(C)c1=O | > 144 | 0.7 | – |
| Cn1c(=O)c(COc2ccc(-c3ccccc3)cc2)nc2ccccc21 | 30 | 0.7 | – |
| Cn1c(=O)c(COc2cccc(Nc3ccccc3)c2)nc2ccccc21 | 25 | 0.9 | – |
| COc1ccc(CCN(C)CCCC(C#N)(c2ccc(OC)c(OC)c2)C(C)C)cc1OC (stereo not drawn) | > 51 | – | – |
